Source: patent publication US6852723B2, “Aralkyl substituted piperazine compounds” (CV Therapeutics, Inc., priority 2000, dated 2005)

Assays:
[1] = tested on: mitochondrial fatty acid oxidation using palmitoyl CoA as substrate; assay: Palmitoyl CoA oxidation in isolated rat heart mitochondria (14C bicarbonate trapped); format: biochemical; details: 15 min at 30° C.
Method: (§1) Rat heart mitochodria were isolated by the method of Nedergard and Cannon (Methods in Enzymol. 55, 3, 1979).
(§2) Palmitoyl CoA oxidation—The Palmitoyl CoA oxidation was carried out in a total volume of 100 microliters containing the following agents: 110 mM KCl, 33 mM Tris buffer at pH 8, 2 mM KPi, 2 mM MgCl2, 0.1 mM EDTA, 14.7 microM defatted BSA, 0.5 mM malic acid, 13 mM carnitine, 1 mM ADP, 52 micrograms of mitochondrial protein, and 16 microM 1-C14 palmitoyl CoA (Sp. Activity 60 mCi/mmole; 20 microCi/ml, using 5 microliters per assay). The compounds of this invention were added in a DMSO solution at the following concentrations: 100 microM, 30 microM, and 3 microM. In each assay, a DMSO control was used. After 15 min at 30° C., the enzymatic reaction was centrifuged (20,000 g for 1 min), and 70 microliters of the supernatant was added to an activated reverse phase silicic acid column (approximately 0.5 ml of silicic acid). The column was eluted with 2 ml of water, and 0.5 ml of the eluent was used for scintillation counting to determine the amount of C^14 trapped as C^14 bicarbonate ion. The data are presented as % activity of control.

[2] = Metabolic stability in human liver S-9 fractions (LC/MS of parent remaining); details: for Liver S-9 stability factor: % parent remaining after 30 min at 37 C divided by average % ranolazine remaining (57%), 10 μM compound, 2 mg/mL S9
Method: Metabolic Stability: As a measure of metabolic stability the compounds of this invention were incubated with human liver S-9 microsomal fractions. After, 30 minutes at 37 C., the amount of parent drug remaining was determined using LC-mass spec. The response factors for each compound was determined by establishing a standard curve and using an internal standard during the analysis of the samples. […] The compounds of this invention were assayed as described in the protocol below and the percentage of parent remaining was divided by the average % of ranolazine remaining (57%) affording a metabolic stability factor.
The purpose of this experiment is to compare the percentages remaining for compounds of this invention with the percentage remaining for ranolazine after 30 minutes of incubation with human liver S9 fractions.
The following reagents were used; Potassium phosphate, 0.5M pH 74. (incubation buffer), kept at room temperature; 0.05M MgCl2 kept at 4° C.; β-Nicotinamide adenine dinucleotide phosphate, tetrasodium salt, reduced form (NADPH), 0.02M solution in water (˜16.6 mg/mL) from Sigma Lot # 79H7044 prepared on day of use.
Incubation mixtures were prepared as follows:
Combine all components with incubation buffer and re-pipette 200 μL/tube+25 μL of the compound being tested along with 25 μL of S-9.
After 5 min of pre-incubation at 37° C., at 0 and 30 min after starting the reaction, a 50 μl aliquot of the incubation mixture was removed and added to 100 μL of 9:1 acetonitrile: methanol containing the internal standard.
The mixture was centrifuged and a 100 μL aliquot of the supernatant was diluted in 1 mL of solvent C (0.1% Formic Acid in water). Then samples were analyzed for change between the ratio of compound to internal standard at time zero and 30 minutes by LC/MS (injected 10 μL).
Samples were analyzed for the starting compounds and potential metabolite/s by LC/MS using an internal standard on a Micromass platform mass spec with a Keystone Inc. BDS ODS-C18 column with a flow rate of 0.25 ml/min.

[3] = tested on: mitochondrial fatty acid oxidation using palmitoyl carnitine as substrate; assay: Palmitoyl carnitine oxidation in isolated rat heart mitochondria (14C bicarbonate trapped); format: biochemical; details: 15 min at 30° C.
Method: as §1
as §2, with “Carnitine Oxidation—The” for “CoA oxidation—The”, “carnitine” for “CoA”, “0.1mg/ml of” for “14.7 microM”, “3” for “13 mM carnitine, 1”, “43” for “16”

Structure (SMILES)	Palmitoyl CoA oxidation activity (% of DMSO control) ([1]; 100 μM compound) [%]	Liver S-9 stability factor [2]	further results
COc1ccccc1OCC(O)CN1CCN(CC(=O)Nc2c(C)cccc2C)CC1 (racemic) [Ranolazine, (±)-N-(2,6-dimethylphenyl)-4-[2-hydroxy-3-(2-methoxyphenoxy)-propyl]-1-piperazineacetamide, reference compound]	75	1.0	Palmitoyl CoA oxidation activity (% of DMSO control) ([1]; 30 μM compound): 90%; percentage of ranolazine remaining at the 30 minute time point ([2]; human liver S-9, 30 minutes at 37 C, average of five experiments): 57%; Mitochondrial palmitoyl carnitine oxidation, % activity of DMSO control ([3]; 30 μM compound): 98%; Mitochondrial palmitoyl carnitine oxidation, % activity of DMSO control ([3]; 100 μM compound): 63%
Cc1cccc(C)c1NC(=O)CN1CCN(CC(O)Cc2ccc3c(c2)OCO3)CC1 (stereo not shown) [Compound 7, 2-[4-(3-Benzo[1,3]dioxol-5-yl-2-hydroxy-propyl)-piperazin-1-yl]-N-(2,6-dimethyl-phenyl)-acetamide]	–	1.46	–
Cc1cccc(C)c1NC(=O)CN1CCN(CC(O)CCc2ccccc2)CC1 (stereo not shown) [Compound 9, N-(2,6-dimethylphenyl)-2-[4-(2-hydroxy-4-phenylbutyl)piperazinyl]acetamide]	84	1.18	Palmitoyl CoA oxidation activity (% of DMSO control) ([1]; 30 μM compound): 84%
COc1ccccc1CC(O)CN1CCN(CC(=O)Nc2c(C)cccc2C)CC1 (stereo not shown) [Compound 10, N-(2,6-dimethylphenyl)-2-{4-[2-hydroxy-3(2-methoxyphenyl)-propyl]piperazinyl}acetamide]	–	1.03	–
COc1ccc(CC(O)CN2CCN(CC(=O)Nc3c(C)cccc3C)CC2)cc1 (stereo not shown) [Compound 11, N-(2,6-dimethylphenyl)-2-{4-[2-hydroxy-3-(4-methoxyphenyl)propyl]piperazinyl}acetamide]	83	1.33	Palmitoyl CoA oxidation activity (% of DMSO control) ([1]; 30 μM compound): 92%
Cc1cccc(C)c1NC(=O)CN1CCN(CC(O)Cc2ccccc2)CC1 (stereo not shown) [Compound 12, N-(2,6-dimethylphenyl)-2-{4-[2-hydroxy-3-phenylpropyl]piperazinyl}acetamide]	42	1.38	Palmitoyl CoA oxidation activity (% of DMSO control) ([1]; 30 μM compound): 95%; Mitochondrial palmitoyl carnitine oxidation, % activity of DMSO control ([3]; 100 μM compound): 56%
Cc1cccc(C)c1NC(=O)CN1CCN(CC(O)Cc2cccc3ccccc23)CC1 (stereo not shown) [Compound 13, N-(2,6-dimethylphenyl)-2-[4-(2-hydroxy-3-naphthylpropyl)piperazinyl]acetamide]	–	0.10	–
COc1ccc(CCC(O)CN2CCN(CC(=O)Nc3c(C)cccc3C)CC2)cc1 (stereo not shown) [Compound 16, N-(2,6-dimethylphenyl)-2-{4-[4-(4-methoxyphenyl)-2-hydroxybutyl]piperazinyl}acetamide]	37	–	–
Cc1cccc(C)c1NC(=O)CN1CCN(CC(O)CCc2c(F)cccc2F)CC1 (stereo not shown) [Compound 17, 2-{4-[4-(2,6-difluorophenyl)-2-hydroxybutyl]piperazinyl}-N-(2,6-dimethylphenyl)acetamide]	78	0.71	–
Cc1cccc(C)c1NC(=O)CN1CCN(CC(O)CCc2ccccc2Cl)CC1 (stereo not shown) [Compound 18, N-(2,6-dimethylphenyl)-2-{4-[4-(2-chlorophenyl)-2-hydroxybutyl]piperazinyl}acetamide]	78	0.68	–
Cc1cccc(C)c1NC(=O)CN1CCN(CC(O)CCc2ccc(C(C)(C)C)cc2)CC1 (stereo not shown) [Compound 19, 2-(4-{4-[4-(tert-butyl)phenyl]-2-hydroxybutyl}piperazinyl)-N-(2,6-dimethylphenyl)acetamide]	35	–	–
Cc1cccc(C)c1NC(=O)CN1CCN(CC(O)CCc2ccccc2F)CC1 (stereo not shown) [Compound 20, N-(2,6-dimethylphenyl)-2-{4-[4-(2-fluorophenyl)-2-hydroxybutyl]piperazinyl}acetamide]	56	–	–
Cc1cccc(C)c1NC(=O)CN1CCN(CC(O)CCc2ccc(C(F)(F)F)cc2)CC1 (stereo not shown) [Compound 21, N-(2,6-dimethylphenyl)-2-(4-{2-hydroxy-4-[4-(trifluoromethyl)phenyl]butyl}piperazinyl)acetamide]	56	–	–
Cc1cccc(C)c1NC(=O)C(C)(C)N1CCN(CC(O)Cc2ccc3c(c2)OCO3)CC1 (stereo not shown) [Compound 22]	–	1.49	–
Cc1cccc(C)c1NC(=O)C(C)(C)N1CCN(CC(O)Cc2ccccc2)CC1 (stereo not shown) [Compound 23, N-(2,6-Dimethyl-phenyl)-2-[4-(2-hydroxy-3-phenyl-propyl)-piperazin-1-yl]-isobutyramide]	–	0.5	–
COc1cc(CC(O)CN2CCN(CC(=O)Nc3c(C)cccc3C)CC2)cc(OC)c1OC (stereo not shown) [Compound 24, N-(2,6-dimethylphenyl)-2-{4-[2-hydroxy-3-(3,4,5-trimethoxyphenyl)prophyl]piperazinyl}acetamide]	72	1.05	–
